Laboratory results: PMC5321434, “Dihydrobenz[e][1,4]oxazepin-2(3H)-ones, a new anthelmintic chemotype immobilising whipworm and reducing infectivity in vivo” (PLoS Neglected Tropical Diseases, 2017)

Test system: adult T. muris
Test: Ex vivo adult T. muris automated motility assay (primary/secondary screen at 100 μM and dose-response)
Design: species or system Trichuris muris
Details: 100 μM; for COMBINED_SCREEN_ACTIVITY: combined primary and secondary screen minus log fold change in movement, adult T. muris; for PRIMARY_SCREEN_MINUS_LOG_FOLD_CHANGE_MOVEMENT: primary screen; for PRIMARY_SCREEN_MINUS_LOG_FOLD_CHANGE_MOVEMENT / SECONDARY_SCREEN_MINUS_LOG_FOLD_CHANGE_MOVEMENT: adult T. muris motility; for SECONDARY_SCREEN_MINUS_LOG_FOLD_CHANGE_MOVEMENT: secondary screen
Method: Severe combined immune deficiency (SCID) mice were bred in the Biological Services Facility at the University of Manchester. Both male and female SCID mice were infected with a high dose of 200 infective embryonated T. muris eggs via oral gavage. At day 35 post-infection, groups of 5 mice were killed and their […] colons removed. Guts were opened longitudinally, washed with pre-warmed Roswell Park Memorial Institute (RPMI) 1640 media supplemented with penicillin (500U/ml) and streptomycin (500μg/ml) and adult T. muris worms gently removed using fine forceps. Worms removed from SCID mice were maintained in RPMI-1640 media supplemented with penicillin (500U/ml) and streptomycin (500μg/ml) at approximately 37°C and studied on the same day. Using fine forceps, individual live worms were placed into 96 well plates containing 75μl of RPMI-1640 medium supplemented with penicillin (500U/ml) and streptomycin (500μg/ml) plus 1% final concentration of DMSO or compound dissolved in DMSO. In the primary screen the test compound concentration was 100μM. Plates were then incubated at 37°C, 5% CO2, and motility was analysed after 24 hours. Worm movement was quantified using an automated motility assay. This system gives an estimate of worm movement in each well by thresholding and quantifying pixel intensity variance over time. An earlier version of this system has been previously described. One adult T. muris worm was used per well, with one well per compound in each replicate of the primary screen. The primary screen was repeated each week for a period of four weeks giving four independent biological replicates from separate parasite batches for each compound. Dose-response curves were calculated with the four factor log-logistic model using the R package drc. The primary screen was carried out at 100μM final concentration. Assay plates were assigned unique IDs and statistical analysis was performed without knowledge of compound identities using R scripts. Once hit wells were identified, well/plate positions were mapped to compound identities using DataWarrior [28]. […] Compounds identified as having encouraging activity from the DMSO solution samples were then resynthesized for confirmatory testing.

Structure (SMILES) | COMBINED_SCREEN_ACTIVITY | PRIMARY_SCREEN_MINUS_LOG_FOLD_CHANGE_MOVEMENT | SECONDARY_SCREEN_MINUS_LOG_FOLD_CHANGE_MOVEMENT
O=C1COCc2cc(-c3ccncc3)ccc2N1Cc1ccccc1 [Compound 52] | 0.9757 | 0.9757 | 
COCCN1C(=O)COCc2ccc(-c3ccc(Cl)cc3)cc21 [Compound 53] | -0.5764 | -0.5764 | 
O=C1COCc2cc(Br)ccc2N1Cc1ccccc1 [Compound 54] | 0.1915 | 0.1915 | 
O=C1COCc2c(Br)cccc2N1Cc1ccccc1 [Compound 55] | 1.386 | 1.386 | 
COCCN1C(=O)COCc2ccc(-c3cc(F)cc(F)c3)cc21 [Compound 56] | -1.686 | -1.686 | 
Cn1cc(-c2ccc3c(c2)COCC(=O)N3Cc2ccccc2)cn1 [Compound 58] | 0.8104 | 0.8104 | 
Cn1cc(-c2ccc3c(c2)N(Cc2ccccc2)C(=O)COC3)cn1 [Compound 59] | -0.5338 | -0.5338 | 
O=C1COCc2ccc(-c3ccncc3)cc2N1CC1CCCCC1 [Compound 60] | 7.742 | 7.742 | 
O=C1COCc2ccc(-c3cccnc3)cc2N1CC1CCCCC1 [Compound 61] | 11.7341 | 10.8493 | 12.6188
O=C(O)c1cccc(-c2ccc3c(c2)N(CC2CC2)C(=O)COC3)c1 [Compound 62] | -1.551 | -1.551 | 
COCc1cccc(-c2ccc3c(c2)N(CC2CC2)C(=O)COC3)c1 [Compound 63] | -1.629 | -1.629 | 
O=C1COCc2cc(Br)ccc2N1CC1CCCCC1 [Compound 64] | 3.118 | 3.494 | 2.742
O=C1COCc2ccc(Br)cc2N1CC1CCCCC1 [Compound 65] | -1.362 | -1.362 | 
COCCN1C(=O)COCc2ccc(-c3cccc(C(C)C)c3)cc21 [Compound 66] | 7.026 | 7.026 | 
Cn1cc(-c2ccc3c(c2)COCC(=O)N3CC2CCCCC2)cn1 [Compound 67] | 7.315 | 2.012 | 12.6188
Cn1cc(-c2ccc3c(c2)N(CC2CCCCC2)C(=O)COC3)cn1 [Compound 68] | -0.9119 | -0.9119 | 
COc1ccc(F)cc1-c1ccc2c(c1)N(CC1CC1)C(=O)COC2 [Compound 69] | 11.5841 | 10.5493 | 12.6188
COc1cc(F)ccc1-c1ccc2c(c1)N(CC1CC1)C(=O)COC2 [Compound 70] | 11.6216 | 10.6243 | 12.6188
COCCN1C(=O)COCc2ccc(-c3cccc(COC)c3)cc21 [Compound 71] | -1.553 | -1.553 | 
O=C1COCc2cc(-c3cccnc3)ccc2N1CCc1ccccc1 [Compound 73] | 3.006 | 3.006 | 
O=C1COCc2ccc(-c3cccnc3)cc2N1CCc1ccccc1 [Compound 74] | -0.776 | -0.776 | 
O=C1COCc2cc(-c3ccncc3)ccc2N1CCc1ccccc1 [Compound 75] | 2.679 | 2.679 | 
Cc1ccccc1CN1C(=O)COCc2ccc(-c3cccnc3)cc21 [Compound 76] | -0.5388 | -0.5388 | 
COCCN1C(=O)COCc2ccc(-c3ccc(F)cc3OC)cc21 [Compound 77] | 0.2033 | 0.2033 | 
O=C1COCc2cc(-c3cccc(O)c3)ccc2N1Cc1ccccc1 [Compound 78] | -0.318 | -0.318 | 
O=C1COCc2cc(Br)ccc2N1CCc1ccccc1 [Compound 79] | -0.767 | -0.767 | 

Structure (SMILES) | COMBINED_SCREEN_ACTIVITY | PRIMARY_SCREEN_MINUS_LOG_FOLD_CHANGE_MOVEMENT | SECONDARY_SCREEN_MINUS_LOG_FOLD_CHANGE_MOVEMENT
O=C1COCc2ccc(Br)cc2N1CCc1ccccc1 [Compound 80] | 10.5493 | 10.5493 | 
Cc1ccccc1CN1C(=O)COCc2ccc(Br)cc21 [Compound 81] | 11.5466 | 10.4743 | 12.6188
Cc1ccc(CN2C(=O)COCc3cc(-c4cnn(C)c4)ccc32)cc1 [Compound 82] | 0.6432 | 0.6432 | 
COCCN1C(=O)COCc2ccc(-c3ccc(F)c(Cl)c3)cc21 [Compound 83] | 1.936 | 1.936 | 
COCCN1C(=O)COCc2ccc(-c3cc(F)cc(Cl)c3)cc21 [Compound 84] | 0.4605 | 0.4605 | 
O=C1COCc2ccc(-c3ccccc3)cc2N1CCN1CCOCC1 [Compound 85] | 0.2067 | 0.2067 | 
O=C1COCc2ccc(-c3cccnc3)cc2N1CCN1CCOCC1 [Compound 86] | -1.564 | -1.564 | 
COCCN1C(=O)COCc2ccc(-c3cccc(NC(C)=O)c3)cc21 [Compound 88] | -0.1104 | -1.635 | 1.414
N#Cc1cccc(-c2ccc3c(c2)N(Cc2ccccc2)C(=O)COC3)c1 [Compound 89] | 0.3109 | 0.3109 | 
N#Cc1cccc(-c2ccc3c(c2)COCC(=O)N3Cc2ccccc2)c1 [Compound 90] | -1.512 | -1.512 | 
O=C1COCc2cc(Br)ccc2N1CCN1CCOCC1 [Compound 91] | -2.221 | -2.221 | 
O=C1COCc2ccc(Br)cc2N1CCN1CCOCC1 [Compound 92] | -1.293 | -1.293 | 
COCCN1C(=O)COCc2ccc(-c3cccc(C(=O)OC)c3)cc21 [Compound 93] | -1.513 | -1.513 | 
COc1ccccc1-c1cccc2c1COCC(=O)N2Cc1ccccc1 [Compound 94] | 10.5493 | 10.5493 | 
COc1ccccc1-c1ccc2c(c1)COCC(=O)N2Cc1ccccc1 [Compound 95] | -1.179 | -1.179 | 
COc1ccccc1-c1ccc2c(c1)N(Cc1ccccc1)C(=O)COC2 [Compound 96] | -0.4906 | -0.4906 | 
O=C1COCc2cc(-c3cccc(O)c3)ccc2N1CCc1ccccc1 [Compound 97] | -0.7944 | -0.7944 | 
Cc1ccc(CN2C(=O)COCc3cc(-c4cccc(O)c4)ccc32)cc1 [Compound 98] | -1.09 | -1.09 | 
O=C1COCc2ccc(-c3cccc(O)c3)cc2N1CCc1ccccc1 [Compound 99] | -1.58 | -1.58 | 
COc1ccc(-c2ccc3c(c2)N(Cc2ccccc2)C(=O)COC3)cc1 [Compound 100] | 3.027 | 3.027 | 
COc1cccc(CN2C(=O)COCc3ccc(-c4ccccc4)cc32)c1 [Compound 101] | -0.6789 | -0.6789 | 
COc1ccc(-c2ccc3c(c2)N(Cc2ccccc2)C(=O)COC3)cn1 [Compound 102] | 0.7062 | 0.7062 | 
COc1cccc(CN2C(=O)COCc3cc(Br)ccc32)c1 [Compound 103] | 7.462 | 7.462 | 
COc1cccc(CN2C(=O)COCc3ccc(Br)cc32)c1 [Compound 104] | -1.975 | -1.975 | 
COc1cccc(CN2C(=O)COCc3cc(-c4cnn(C)c4)ccc32)c1 [Compound 105] | -0.2739 | -0.55 | 0.002295
O=C1COCc2cc(-c3cccnc3)ccc2N1Cc1ccccc1Cl [Compound 106] | 6.595 | 6.595 | 
